Data published in patent US20230114264A1, “ACTIVATION OF LYTIC GENES IN CANCER CELLS” (priority 2020, published 2023).

Assays:
EBV lytic genes = assay: EBV lytic gene induction in DOX-induced C666-1 dCas9-Tet-on-PUFa-p65HSF1 gRNA cells; assay type: cell-based, Epstein-Barr virus (EBV)
From the text: SNU-719 and C666-1 cancer cells stably expressing HA-dCas9-EGFP and BZLF1 gRNA (A5) were modified to inducibly express 3×FLAG-PUFa-p65HSF1 using a Tetracycline response element (Tet-On). […] This reactivation of EBV slows the growth rate of cells by greater than 4 fold compared with cells treated with ganciclovir (GCV) alone, a current standard treatment for EBV infection (FIGS. 3B, 6A, 8H-8I). Further, treatment with BZLF1 gRNA (A5) decreases C666-1 cell viability by 50-70% relative to control (FIG. 6B).
Producing Tet-on PUFa-p65HSF1 cell line. SNU-719 or C666-1 cells stably expressing HA-dCas9-EGFP were seeded into a 60 mm culture dish at 70% density. The cells were transfected with 1 μg hyPBase (transposase) and 2 μg dox-inducible PUFa-p65HSF1 in a piggyBac vector plasmid through Lipofectamine 2000 reagent (Invitrogen). At 6 hours post-transfection, cell culture medium was exchanged. At 48 hours post-transfection, cells were selected with hygromycin antibiotics.
Producing Tet-on PUFa-p65HSF1 and BZLF1 gRNA (3) cell line. The day prior to transfection, HEK-293FT cells were seeded into a 10 cm culture dish at 70% density. […]. At 6 hours post-transfection, medium was exchanged for fresh. At 48 hours post-transfection, 5 mL of medium containing the lentivirus was collected and centrifuged for 10 minutes at 2,000 rpm to remove cellular debris. The supernatant was filtered through a 0.45-micron filter (Millipore), and the lentivirus was collected. SNU-719 dCas9-Tet-on-PUFa-p65HSF1 or C666-1 dCas9-Tet-on-PUFa-p65HSF1 cells were seeded into a 10 cm culture dish at 60% density per dish, transduced with 7 mL of the BZLF1 gRNA (A5) lentivirus in culture medium supplemented with 8 μg/mL polybrene for 48 hours, and subsequently selected with Puromycin antibiotics on the third day post-transduction.
RNA in-situ hybridization ISH (RNAscope®). Doxycycline (DOX) treated or untreated SNU-719 HA-dCas9-EGFP-Tet-on-PUFa-p65HSF1-BZLF1 gRNA (A5) cells or C666-1-HA-dCas9-Tet-on-PUFa-p65HSF1-BZLF1 gRNA (A5) cells were incubated for 48 hours. […]

SNU-719 cells = assay: Growth proliferation, viability, apoptosis, cell cycle and clonogenic assays in SNU-719 cells; assay type: cell-based
Protocol: Growth proliferation assay. SNU-719 HA-dCas9-Tet-on-PUFa-p65HSF1-BZLF1 gRNA (3) or C666-1 HA-dCas9-Tet-on-PUFa-p65HSF1-BZLF1 gRNA (A5) cells were seeded into individual wells of a 96-well plate for at 1×10^5 cells per well the day before being treated with 1 μg/mL DOX and Ganciclovir (GCV). Cells were counted with the cell counting kit-8 (CCK-8, Sigma) at day 6, day 7, and day 8 (FIGS. 8H-8I).
Active caspase-3 analysis. To detect the apoptosis in DOX treated dCas9-Tet on-p65HSF1-BZLF1sgRNA3 SNU719 and C17 cells, active caspase-3 apoptosis kit (BD Pharmingen #550914) was used. Untreated and treated cells were trypsinized and then fixed with fixation buffer in ice for 20 mins and washed with washing buffer twice. Cells were then stained with the PE conjugated rabbit anti active caspase-3 antibody in dark for 30 mins. Stained cells were collected with BD LSRFortessa.
Cell cycle analysis. After 96 hours from induction of DOX, dCas9-Tet on-p65HSF1-BZLF1sgRNA3 SNU719 and C17 cells were trypsinized and then fixed with 75% cold ethanol for 2 hrs at −20° C. Cells were washed three times with cold PBS and then resuspended in PBS containing 100 μg/mL RNase A and 10 μg/mL propidium iodide for 10 min at room temperature. Stained cells were collected with BD LSRFortessa.
Clonogenic assays. Cells were seeded at a density of 500 cells/well in 6-well plates the day before treatment. Then cells were stained with 0.5% crystal violet 14 days after treatment, and at least 50 cells were considered as a single colony

[1] = system: EBV early proteins EA-D and PK; assay: BZLF1 and BRLF1 gRNA co-transfection in C666-1 cells, EBV lytic protein expression; assay type: cell-based, Epstein-Barr virus (EBV); details: cell lysate 48 hours post-transfection

## BZLF1 gRNA (A5): BZLF1 gRNA spacer sequence SEQ ID NO: 10, GAAACTATGCATGAGCCAC (chemistry not given here)
EBV lytic genes; 1 μg/mL DOX
  expression of other EBV lytic genes including BRLF1 (Rta), BGLF4 (PK), BFRF3 (VCAp18), BMRF1, BdRF1 and BLLF1: induces the expression of other EBV lytic genes
EBV lytic genes; 1 μg/mL Doxycycline (DOX), Example 10
  BZLF1 (Zta) reactivation: reactivated BZLF1 (Zta)
EBV lytic genes; 3×FLAG-PUFa-p65HSF1 induced with 1 μg/mL Doxycycline
  induction of the BZLF1, BGLF4, BMRF1, and BFRF3 (VCAp18) EBV lytic genes: reactivated EBV
SNU-719 cells; SNU719, DOX induced, FIG. 17B
  cell cycle by flow cytometry: sub G1 phase accumulation and S phase decrease
SNU-719 cells; SNU719, after DOX induction, FIG. 17E
  monolayer colony formation: dramatic suppression
SNU-719 cells; SNU-719, DOX-induced EBV reactivation
  cell proliferation, apoptosis and growth of cells in vitro: suppressed the cell proliferation, induced apoptosis, and slowed the growth of cells
SNU-719 cells; SNU-719, EBV reactivation by 1 μg/mL DOX, FIG. 8I
  slowing of growth rate of cells compared with cells treated with ganciclovir (GCV) alone: greater than 4 fold
[1]
  EBV reactivation, expression of the EBV early proteins EA-D and PK: induce EBV reactivation
